Test system: IPLB-Sf-21 cells
Experiment: Determination of the biological activity of the peptides: cell count of serum-weaned IPLB-Sf-21 cultures after four days with peptide
Type: cell-based, Spodoptera frugiperda
Conditions: for peptide concentration at which the maximum growth-promoting effect was achieved: serum-free TC100 medium; for Rel. yield: IPLB-Sf-21, TC100 medium, 4 days
Description: IPLB-Sf-21 cells (ACC1 19, DSMZ in Braunschweig, Germany) were obtained from Dr. Victor Romanowski (Instituto de Bioquímica y Biología Molecular, Facultad de Ciencias Exactas, Universidad Nacional de la Plata, República Argentina) and maintained at 28° C. in TC-100 medium (Gibco/Life Technologies, Grand Island, N.Y., USA) containing 10% foetal calf serum (FCS, SIGMA, St. Louis, Mo., USA).
IPLB-Sf-21 cells were sown at a starting density of 5×10^4 cells in 1 ml of culture medium (TC-100+10% FCS) in the individual wells of 24-well culture plates. The plates were incubated at 27° C. for two days in a humidified chamber. During the following two days, the cultures were weaned off the serum additive by replacing the medium several times with pure TC100 medium and were then provided with the peptides or peptide fractions at various concentrations. Control cultures were cultivated in pure TC100 medium.
Four days later, the cells were harvested by being scraped off carefully. The cell count per culture well was determined by counting in a Neubauer chamber with an inverted microscope. The Neubauer chamber had two regions for counting. Each sample was counted three times in each of the two regions (six values per sample).

Row | Substance | peptide concentration at which the maximum growth-promoting effect was achieved (IPLB-Sf-21 cells) [µg/mL] | Rel. yield (Tripeptide concentration 0.01 μg/ml, cell yield relative to cultures without peptide and without FCS) | Rel. yield (Tripeptide concentration 0.1 μg/ml, cell yield relative to cultures without peptide and without FCS) | Rel. yield (Tripeptide concentration 1 μg/ml, cell yield relative to cultures without peptide and without FCS) | Rel. yield (Tripeptide concentration 10 μg/ml, cell yield relative to cultures without peptide and without FCS) | Rel. yield (Tripeptide concentration 100 μg/ml, cell yield relative to cultures without peptide and without FCS) | concentrations resulting in growth inhibition (very high concentrations, IPLB-Sf-21 cells) [µg/mL] | Rel. yield (Decapeptide concentration 0.01 μg/ml, cell yield relative to cultures without FCS) | Rel. yield (Decapeptide concentration 0.1 μg/ml, cell yield relative to cultures without FCS) | Rel. yield (Decapeptide concentration 1 μg/ml, cell yield relative to cultures without FCS) | Rel. yield (Decapeptide concentration 10 μg/ml, cell yield relative to cultures without FCS) | Rel. yield (Decapeptide concentration 100 μg/ml, cell yield relative to cultures without FCS) | effect of higher concentrations on cell growth (concentrations higher than 1 μg/ml, IPLB-Sf-21 cells)
1 | AC-HQP-OH [Tripeptide] | 0.1 | 1.251 | 1.345 | 1.101 | 1.030 | 0.826 | > 10 | – | – | – | – | – | –
2 | Ac-HQPHQPLPPT-OH [Decapeptide] | 1 | – | – | – | – | – | – | 1.051 | 1.182 | 1.272 | 1.175 | 0.866 | growth inhibition
